Data: patent publication US20250333805A1, “HERICIUM ERINACEUS STRAIN HE015, MOLECULAR MARKERS AND USES THEREOF” (INFINITUS (CHINA) COMPANY LTD., priority 2024, published 2025)

Test system: mice with chronic alcohol-induced gastric mucosal damage
Experiment: Chronic alcohol-induced gastric mucosal damage mice model (60% ethanol intragastrically): body weight, survival, HE staining of gastric tissue
Format: in vivo, Male KM mice
Conditions: for body weight of the mice at the end of the experiment, compared with Model: extracts 10 mg/mL, Lansoprazole 0.35 mg/mL, 0.3 mL intragastrically once daily for 2 weeks, 60% ethanol in second week, P<0.05 where significant
Procedure: Male KM mice, SPF grade, body weight of 18-22 g, 5-6 weeks of age, feeding temperature and humidity: 23±1° C. and 55±10%; 12 h day-and-night discontinuous illumination was used; conditions of the raising room were always kept stable, thereby ensuring the reliability of the test result. The mice took food and drank water freely.
Male KM mice were adaptively raised for 7 d, and then randomly divided into the following 8 groups: • Blank control group 1: Control • Model control group 1: Model • Administration group 1: Positive • Administration group 2: HEF • Administration group 3: HEFP • Administration group 4: HEFX • Administration group 5: HESP • Administration group 6: HESX.
There were 14 mice in the Model group, and 13 mice in the other groups, and the mice were fed with an ordinary fodder.
Experimental duration is 2 weeks:
First week: the mice in each administration group were prophylactically administered intragastrically once every day; and its administration concentration is shown in Table 9; meanwhile, the mice in the Control and Model groups were administered 0.3 mL of pure water intragastrically.
Second week: the mice in the Model and each administration groups were administered 0.3 mL of 60% ethanol intragastrically once per day for modeling, to induce a chronic alcohol-induced gastric mucosal damage mice model, and modeling was performed for a week; meanwhile, the mice in the administration groups were administered (administration concentration and dosage were the same as those in the first week), the protective effects of different administration groups on gastric mucosa were observed.
Administration was stopped the night before the end of the experiment; the mice were not allowed to take food, but allowed to drink water. Eyeballs were picked out and blood was collected, and then the mice were killed by cervical dislocation; gastric tissues were taken and placed into 4% paraformaldehyde stationary solution for immobilization, for use in pathological examination.

Compound: Cc1c(OCC(F)(F)F)ccnc1C[S+]([O-])c1nc2ccccc2[nH]1 (stereo not drawn) [Positive, Lansoprazole]
- body weight of the mice at the end of the experiment, compared with Model (FIG. 5A): significantly greater than that in the Model
- body weight of the mice at the end of the experiment, compared with Model (FIG. 5A, listed as Lansoprazole): may increase the body weight
- death count of the mice at the end of the experiment (same regimen, compared with other groups, FIG. 5B): obviously higher than that in other groups
- HE staining of mice gastric tissues (gastric mucosa morphology) (same regimen, gastric tissue at end of experiment, FIG. 6): necrosis exfoliation of partial mucosal epithelial cells of the gastric tissue, loose arrangement of partial cells and infiltration of a small amount of inflammatory cells
- survival rate of the mice at the end of the experiment, compared with Model (same regimen, survival curve FIG. 5B): slightly higher than that of the Model group
- body weight of the mice during modeling, compared with Control (second week, 60% ethanol modeling, P<0.01, FIG. 5A): lower than that in the Control
